Data taken from patent US7544703B2, “Cyclic compound having 4-pyridylalkylthio group having substituted or unsubstituted amino group introduced therein” (Santen Pharmaceutical Co., Ltd., priority 2004, dated 2009).
Where a name gives a salt, the structure may show the parent alone.

Assays:
B16 cells = test: Tumor growth inhibitory action test using cancer models in mice (B16 cells); assay type: in vivo; conditions: C57BL/6N mouse, B16 cells intradermal; 100 mg/kg/day oral once a day, day 0 to day 10; average of 9 mice per group; read-out: Tumor tissue weight inhibition rate (%)
Protocol: A tumor growth inhibitory action test of the compounds of the present invention was performed using a tumor growth model in mice, which is one of the widely-used methods of evaluating in vivo anticancer effects of drugs.
As one of the widely-used methods of evaluating anticancer effects of drugs, a tumor growth inhibitory action test using cancer models in mice has been reported in Cancer Res., 59, 5209-5218 (1999). According to the method described in the above-mentioned document, a tumor growth inhibitory action test of the compounds of the present invention was performed, the tumor tissue weight inhibition rate was calculated, and the anticancer effect of each of the compounds of the present invention was evaluated using the obtained rate as an index.
A 1% aqueous methyl cellulose solution was added to each test compound to suspend it with a sonicator, whereby a 10 mg/mL test compound suspension was prepared.
Physiological saline was added to B16 cells, whereby a 3.3×10^7 cells/mL B16 cell suspension was prepared.
• 1) The back of each mouse (female, 6 weeks of age, C57BL/6N mouse) was depilated using a depilatory under Nembutal anesthesia. • 2) Several days after the depilation, the B16 cell suspension (300 μL) was injected intradermally into the back of the mouse under Nembutal anesthesia. • 3) From the B16 cell injection day (i.e. on day 0) to day 10, the test compound suspension (100 mg/kg/day) was orally administered once a day consecutively. • 4) Ten days after the injection of the cells, the mouse was euthanized with CO2 gas. • 5) A tumor tissue was enucleated from the mouse, and the weight of the tumor tissue was measured with an electronic balance. • 6) A test was performed in the same manner as in 1) to 5) except that the 1% aqueous methyl cellulose solution was used instead of the test compound suspension, and the result was used as a control. (Calculation of Tumor Tissue Weight Inhibition Rate)
A tumor tissue weight inhibition rate (the average of 9 mice per group), which was used as an index of anticancer effect, was calculated according to the following calculation equation. Tumor tissue weight inhibition rate (%)=100−(Mx/Mo)×100 (Calculation Equation) Mo: Tumor tissue weight of control group Mx: Tumor tissue weight of test compound solution administration group (Test Results and Discussion)

[1] = tested on: HUVEC (normal human umbilical vein endothelial cells); test: VEGF-induced HUVEC proliferation: cell proliferation inhibitory action test; assay type: cell-based; conditions: 72 h, 5 μL of 20 μg/mL test compound solution per well, WST-8 absorbance at 450 nm three days after VEGF addition, read-out: Cell proliferation inhibition rate (%);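 further: each well holds 100 µL cell suspension before compound addition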
In short: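 HUVECs in 0.5% FBS F12K on type I collagen were pretreated 1 h with compound (20 μg/mL solution in PBS from DMSO stock, 5 μL/well), then stimulated with VEGF (400 ng/mL solution). After 3 days at 37 °C, viability was read by WST-8 A450. Inhibition % was calculated against a 1.0% DMSO control, minus cell+medium blank.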

SMILES | inhibition in vivo at 100 mg/kg/day (B16 cells) [%] | inhibition at 20 µg/mL (stock) [1] [%]
Cc1cc(C)cc(NC(=O)c2cccnc2SCc2ccnc(N)c2)c1 [Compound 3-1, 2-(2-Aminopyridin-4-ylmethylthio)-N-(3,5-dimethylphenyl)pyridine-3-carboxamide monohydrochloride] | 70 | 100
CNc1cc(CSc2ncccc2C(=O)Nc2ccc(OC(F)(F)F)cc2)ccn1 [Compound 3-8, 2-(2-Methylaminopyridin-4-ylmethylthio)-N-(4-trifluoromethoxyphenyl)pyridine-3-carboxamide monohydrochloride] | 80 | 100
Nc1cc(CSc2ncccc2C(=O)Nc2ccc(OC(F)(F)F)cc2)ccn1 [Compound 3-10, 2-(2-Aminopyridin-4-ylmethylthio)-N-(4-trifluoromethoxyphenyl)pyridine-3-carboxamide] | 85 | 97
CC(=O)Nc1cc(CSc2ncccc2C(=O)Nc2cc(C)cc(C)c2)ccn1 [Compound 4-1, 2-(2-Acetylaminopyridin-4-ylmethylthio)-N-(3,5-dimethylphenyl)pyridine-3-carboxamide] | 75 | 100
CC(=O)Nc1cc(CSc2ncccc2C(=O)Nc2ccc(Cl)cc2)ccn1 [Compound 4-10, 2-(2-Acetylaminopyridin-4-ylmethylthio)-N-(4-chlorophenyl)pyridine-3-carboxamide] | 75 | 100
CC(=O)Nc1cc(CSc2ncccc2C(=O)Nc2ccc(OC(F)(F)F)cc2)ccn1 [Compound 4-11, 2-(2-Acetylaminopyridin-4-ylmethylthio)-N-(4-trifluoromethoxyphenyl)pyridine-3-carboxamide] | 86 | 93
CNC(=O)Nc1cc(CSc2ncccc2C(=O)Nc2cc(C)cc(C)c2)ccn1 [Compound 9-1, N-(3,5-Dimethylphenyl)-2-[2-(N′-methylureido)pyridin-4-ylmethylthio]pyridine-3-carboxamide] | 43 | 100
CC(=O)OCC(=O)Nc1cc(CSc2ncccc2C(=O)Nc2cc(C)cc(C)c2)ccn1 [Compound 10-1, 2-(2-Acetoxyacetylaminopyridin-4-ylmethylthio)-N-(3,5-dimethylphenyl)pyridine-3-carboxamide] | 54 | 100
O=C(CO)Nc1cc(CSc2ncccc2C(=O)Nc2ccc(OC(F)(F)F)cc2)ccn1 [Compound 12-1, 2-(2-Hydroxyacetylaminopyridin-4-ylmethylthio)-N-(4-trifluoromethoxyphenyl)pyridine-3-carboxamide] | 85 | 78
